Where a SMILES comes first, the peptide text is derived from it. The star is where a group is joined. Adamantane1carbonyl = O=C(C12CC3CC(CC(C3)C1)C2)*; {FITC} = fluorescein (FITC) label; Ad = adamantane
Legend:
BHK-21 cells = test: Toxicity of GALA / GALA-Ad compositions by total protein of cell lysates (Example 35); assay type: cell-based; conditions: peptide added to 12/pGL-CV3 5+/−, 48 hours after transfection
Procedure: The toxicity of GALA and GALA-Ad modified compositions was determined by measuring the protein concentrations of the cell lysates obtained in the transfection experiments. BHK-21 cells were transfected with 1 μg of pGL-CV3 complexed with 12 at 5+/−charge ratio. Prior to transfection, various ratios of GALA and GALA-Ad were added to the complexes. Cell survival for transfections in the presence of GALA (solid bars) and GALA-Ad (white bars) was determined by assaying for total protein concentrations 48 hours after transfection and normalizing each sample with protein levels for untransfected cells. The protein concentrations are reported as the mean±SD of three replicates were averaged and divided by the average protein concentration of cells transfected with 12/pGL-CV3 compositions alone and reported as fraction cell survival (FIG. 7).

[1] = Zeta potential of Tf-modified polyplexes (Example 58); assay type: physicochemical; conditions: 12/DNA 3+/−
Procedure: An equivolume aliquot of 12 was added to an aliquot of plasmid DNA ([…], 0.1 mg/mL in water) at a 3+/−charge ratio to form the particulate composite. Holo-transferrin or holo-Tf-PEG-Ad (17 mg/mL in water) was then added to the particulate composite. The particles were diluted by the addition of 1.2 mL of water and zeta potential determined by measurements on a ZetaPals dynamic light scattering instrument (Brookhaven Instruments). The unmodified holo-transferrin associates with the particulate composites by electrostatic interactions. […] The holo-Transferrin-PEG-Ad (designated Tf-PEG-Ad in FIG. 25) is likely to associate to the particulate composites by both electrostatic and inclusion compound interactions. Therefore, there is a higher association of holo-Tf-PEG-Ad with the particles, as evidenced by the continued decrease in zeta potential of the modified particles with higher concentrations of holo-Tf-PEG-Ad. At 2 nmol Tf/μg, particulate composites modified with holo-Tf-PEG-Ad are negatively charged (zeta potential ˜−7 mV).

[2] = Zeta potential of particulate composites modified with PEG-peptide-Ad agents (Example 49); assay type: physicochemical; conditions: 12/pCMV-Luc, 2 CD:1 PEG
HepG2 cells = test: Galactose-mediated luciferase transfection of HepG2 hepatoma cells (Example 49); assay type: cell-based; conditions: for transfection of HepG2 cells: 12/pCMV-Luc, 2 CD:1 PEG
Procedure: HepG2 cells were plated in 24-well plates at 50,000 cells/well. 1 μg of pCMV-Luc was contacted with an equal volume of 12 and modified as indicated below. Modification with PEG-containing complexing agents was done at a 2:1 CD:PEG ratio, where CD represents the cyclodextrins in 12.
200 μL of Optimem was added to each transfection mixture and transferred to each well of cells. 4 hours after transfection, 800 μL of complete media was added to each well. The media was removed, cells washed with PBS, and 1 mL of complete media added to each well 24 hours after transfection. 48 hours after transfection cells were washed with PBS, lysed and analyzed for luciferase activity. The described transfection procedure was also executed in the presence of 1 mM glucose or 1 mM galactose as a competitive inhibitor.

HUH-7 cells = test: FITC-Oligo uptake by HUH-7 cells after post-complexation pegylation, FACS (Example 41); assay type: cell-based; conditions: 3+/− charge ratio, 1:1 PEG to cyclodextrin, 15 minute incubation
Procedure: Step 1: Transfection mixtures were prepared as follows: An equal volume of cationic, 12 was added to 3 μg of FITC-Oligos (0.1 μg/μL in water) at a 3+/−charge ratio of polymer to DNA. To the complexes was added free PEG or Ad-PEG5000 (as prepared in Example 40) at a 1:1 PEG to cyclodextrin ratio.
Step 2. HUH-7 cells were plated at 3×10^5 cells/well in 6 well plates and maintained in 4 mLs of DMEM+10% FBS+Antibiotic/Antimycotic for 24 hours. After 24 hours, the cells were washed with PBS and 1 mL of Optimem containing the transfection mixtures of Step 1 was added to the cells. After a 15 minute incubation, the transfection media was removed, the cells were washed with PBS and 1 mL of Optimem was added to each well. The cells were incubated for another 30 minutes at 37° C. The cells were then washed with Cell Scrub Buffer (Gene Therapy Systems) to remove surface-associated complexes and PBS and then detached from the wells by trypsin treatment. The cells were then prepared and analyzed by FACS analysis for FITC-Oligo uptake. The modification of the complexes by Ad-PEG5000 decreases uptake of the FITC-Oligo/polymer complexes.

Compound: CC(C)C[C@H](NC(=O)[C@H](C)NC(=O)[C@H](CCC(=O)O)NC(=O)[C@H](CC(C)C)NC(=O)[C@H](C)NC(=O)[C@H](CCC(=O)O)NC(=O)[C@H](C)NC(=O)[C@H](CC(C)C)NC(=O)[C@H](C)NC(=O)[C@H](CCC(=O)O)NC(=O)[C@H](C)NC(=O)[C@H](CC(C)C)NC(=O)[C@H](Cc1c[nH]cn1)NC(=O)[C@H](CCC(=O)O)NC(=O)[C@H](C)NC(=O)[C@H](CC(C)C)NC(=O)[C@H](C)NC(=O)[C@H](CCC(=O)O)NC(=O)[C@H](C)NC(=O)[C@H](CC(C)C)NC(=O)[C@H](C)NC(=O)[C@H](CCC(=O)O)NC(=O)[C@H](C)NC(=O)[C@H](CC(C)C)NC(=O)[C@H](C)NC(=O)[C@H](C)NC(=O)[C@H](CCC(=O)O)NC(=O)[C@@H](N)Cc1c[nH]c2ccccc12)C(=O)N[C@@H](C)C(=O)N[C@@H](C)C(=O)O [GALA, WEAALAEALAEALAEHLAEALAEALEALAA, reference compound] (H-WEAALAEALAEALAEHLAEALAEALEALAA-OH)
- toxicity to BHK-21 cells (fraction cell survival) (BHK-21 cells): no observable toxicity

Compound: Tf-PEG-Ad: human transferrin coupled via lysine groups to Vinylsulfone-PEG3400-Ad
- zeta potential ([1]; 2 nmol Tf/μg): ~−7 mV

Compound: PEG5000-CAEAEAEAE-Ad [PEG-Pep-Ad]
- zeta potential (sign) [2]: negative
- transfection of HepG2 cells (HepG2 cells): do not readily transfect cells

Compound: CC(C)C[C@H](NC(=O)[C@H](C)NC(=O)[C@H](CCC(=O)O)NC(=O)[C@H](CC(C)C)NC(=O)[C@H](C)NC(=O)[C@H](CCC(=O)O)NC(=O)[C@H](C)NC(=O)[C@H](CC(C)C)NC(=O)[C@H](C)NC(=O)[C@H](CCC(=O)O)NC(=O)[C@H](C)NC(=O)[C@H](CC(C)C)NC(=O)[C@H](Cc1c[nH]cn1)NC(=O)[C@H](CCC(=O)O)NC(=O)[C@H](C)NC(=O)[C@H](CC(C)C)NC(=O)[C@H](C)NC(=O)[C@H](CCC(=O)O)NC(=O)[C@H](C)NC(=O)[C@H](CC(C)C)NC(=O)[C@H](C)NC(=O)[C@H](CCC(=O)O)NC(=O)[C@H](C)NC(=O)[C@H](CC(C)C)NC(=O)[C@H](C)NC(=O)[C@H](C)NC(=O)[C@H](CCC(=O)O)NC(=O)[C@H](Cc1c[nH]c2ccccc12)NC(=O)C12CC3CC(CC(C3)C1)C2)C(=O)N[C@@H](C)C(=O)N[C@@H](C)C(=O)O [GALA-Ad] (Adamantane1carbonyl-WEAALAEALAEALAEHLAEALAEALEALAA-OH)
- toxicity to BHK-21 cells (fraction cell survival) (BHK-21 cells): no observable toxicity

Compound: Glucose-PEG3400-CAEAEAEAE-Ad [Glu-PEG-Pep-Ad]
- transfection of HepG2 cells (HepG2 cells): do not readily transfect cells

Compound: Galactose-PEG3400-CAEAEAEAE-Ad [Gal-PEG-Pep-Ad]
- transfection in the presence of free galactose (HepG2 cells; 1 mM galactose as competitive inhibitor): inhibited
- transfection of HepG2 cells (HepG2 cells): enhanced transfection

Compound: holo-transferrin: iron-loaded unmodified transferrin
- particle charge ([1]; 2 nmol Tf/μg DNA): approach neutrality

Compound: 5′-FITC-ACT GCT TAC CAG GGA TTTCAG TGC A-3′ (DNA ACTGCTTACCAGGGATTTCAGTGCA; DNA, 5' {FITC}, backbone and methylation of C not given here) [FITC-Oligo]
- Percent Transfected (HUH-7 cells): 0%

Reference: US8092833B2, “Compositions containing inclusion complexes” (California Institute of Technology, priority 2000, dated 2012)
